Experimental data: US6268533A, “Formoterol process” (Sepracor Inc., priority 2000, dated 2001)
Where a name gives a salt, the structure may show the parent alone.

How the values were obtained:
[1] = system: β2 -selective adrenoceptor; details: inhaled; background statement; cited from earlier work
[2] = stability of formoterol salts in the presence of lactose and water; assay type: physicochemical
Source text: Alternatively, if lactose is to be used, as described below, the dry powder must be packaged in such a manner as to exclude moisture.

[3] = moisture sorption of salts, water content by Karl Fischer titration; assay type: physicochemical; details: for water content (moisture sorption): room temperature; for moisture sorption compared with other salts or forms (in words): comparison of salts/polymorphs of R,R-formoterol
Description: Water absorption is a major problem in formulating a medicament for therapeutic use, and therefore a salt that has minimal water absorption offers significant advantages. In a series of experiments various salts of R,R-formoterol were prepared.
The salts were exposed to varying levels of humidity at room temperature for 1 to 28 days, and the samples were analyzed for water content by Karl Fischer titration. The values are given in % w/w.

[4] = system: guinea pig trachea; details: four isomers compared; cited from earlier work
[5] = system: β-adrenoceptors; details: four isomers, in vitro; cited from earlier work
[6] = total impurities of crystal forms after heating; assay type: physicochemical; details: for decomposition (total impurities study): 175° C.
Source text: The two crystal forms of (R,R)-formoterol tartrate were also studied by measuring the total impurities in the material from each of the experiments in Table 6.

[7] = appearance of sample after TGA; assay type: physicochemical
Description: In each experiment, the polymorph was warmed from 30° C. to the designated temperature at 10° C./min and held at the designated temperature for 15 minutes. The loss on drying (LOD) was measured, and the appearance of the material was noted. […] The differences in appearance of each crystal form at the designated temperatures were consistent with the changes in LODs.

[8] = thermal stability of crystal forms, loss on drying by TGA; assay type: physicochemical; details: for % LOD by TGA: held 15 min
Description: In each experiment, the polymorph was warmed from 30° C. to the designated temperature at 10° C./min and held at the designated temperature for 15 minutes. The loss on drying (LOD) was measured, and the appearance of the material was noted.

[9] = 85% RH (printed RE for the fumarate)

For `COc1ccc(C[C@@H](C)NC[C@H](O)c2ccc(O)c(NC=O)c2)cc1` (relative stereo) [Formoterol, (+/-) N-[2-hydroxy-5-[1-hydroxy-2[[2-(p-methoxyphenyl)-2-propyl]amino]ethyl]phenyl]-formamide], the bronchodilating effect [1] is given as “long lasting bronchodilating effect”.
For `COc1ccc(C[C@@H](C)NC[C@H](O)c2ccc(O)c(NC=O)c2)cc1` (relative stereo) [racemic (R,R/S,S) formoterol hemifumarate hydrate], the “incompatibility with lactose on encountering moisture” value [2] was “not observed”.
With `COc1ccc(C[C@@H](C)NC[C@H](O)c2ccc(O)c(NC=O)c2)cc1` [(R,R)-Formoterol-HCl] the “water content (moisture sorption)” value ([3]; 11% relative humidity, day 1) was 0.5735 % w/w, the “water content (moisture sorption)” value ([3]; 11% relative humidity, day 3) was 0.553 % w/w and the “water content (moisture sorption)” value ([3]; 11% relative humidity, day 8) was 0.3656 % w/w. For the same compound, the “water content (moisture sorption)” value ([3]; 11% relative humidity, day 14) was 0.4385 % w/w, the “water content (moisture sorption)” value ([3]; 11% relative humidity, day 28) was 0.2644 % w/w and the “water content (moisture sorption)” value ([3]; 43% relative humidity, day 1) was 0.8502 % w/w. For the same compound, the “water content (moisture sorption)” value ([3]; 43% relative humidity, day 3) was 1.1636 % w/w, the “water content (moisture sorption)” value ([3]; 43% relative humidity, day 8) was 0.8781 % w/w and the “water content (moisture sorption)” value ([3]; 43% relative humidity, day 14) was 0.9802 % w/w. The “water content (moisture sorption)” value ([3]; 43% relative humidity, day 28) was 0.8133 % w/w, the water absorbed ([3]; 75% RH) was 1.3-1.4% and the “water content (moisture sorption)” value ([3]; 75% relative humidity, day 1) was 1.5335 % w/w. The “water content (moisture sorption)” value ([3]; 75% relative humidity, day 3) was 1.3288 % w/w, the “water content (moisture sorption)” value ([3]; 75% relative humidity, day 8) was 1.4931 % w/w and the “water content (moisture sorption)” value ([3]; 75% relative humidity, day 14) was 1.4585 % w/w. The “water content (moisture sorption)” value ([3]; 75% relative humidity, day 28) was 1.221 % w/w, the “water content (moisture sorption)” value ([3]; 89% relative humidity, day 1) was 1.4573 % w/w and the “water content (moisture sorption)” value ([3]; 89% relative humidity, day 3) was 2.419 % w/w. For the same compound, the “water content (moisture sorption)” value ([3]; 89% relative humidity, day 8) was 1.6487 % w/w, the “water content (moisture sorption)” value ([3]; 89% relative humidity, day 14) was 1.5739 % w/w and the “water content (moisture sorption)” value ([3]; 89% relative humidity, day 28) was 1.1139 % w/w. The “moisture sorption compared with other salts or forms (in words)” value ([3]; listed as hydrochloride) was “somewhat better at 43% RE”.
In the case of `COc1ccc(C[C@@H](C)NC[C@H](O)c2ccc(O)c(NC=O)c2)cc1` [(R,R)-Formoterol-SO4], the “water content (moisture sorption)” value ([3]; 11% relative humidity, day 1) is reported as 1.2251 % w/w, the “water content (moisture sorption)” value ([3]; 11% relative humidity, day 3) is reported as 1.3892 % w/w and the “water content (moisture sorption)” value ([3]; 11% relative humidity, day 8) is reported as 0.9574 % w/w. For the same compound, the “water content (moisture sorption)” value ([3]; 11% relative humidity, day 14) was 1.209 % w/w, the “water content (moisture sorption)” value ([3]; 11% relative humidity, day 28) was 0.7866 % w/w and the water absorbed ([3]; 43% relative humidity) was “more than 3 % by weight”. The “water content (moisture sorption)” value ([3]; 43% relative humidity, day 1) was 2.9647 % w/w, the “water content (moisture sorption)” value ([3]; 43% relative humidity, day 3) was 3.4998 % w/w and the “water content (moisture sorption)” value ([3]; 43% relative humidity, day 8) was 3.4048 % w/w. The “water content (moisture sorption)” value ([3]; 43% relative humidity, day 14) was 2.2985 % w/w and the “water content (moisture sorption)” value ([3]; 43% relative humidity, day 28) was 3.1595 % w/w.
For `COc1ccc(C[C@@H](C)NC[C@H](O)c2ccc(O)c(NC=O)c2)cc1` [(R,R)-isomer], the “relaxing activity, rank of potency” value [4] is listed as “most potent” and the order of potency [5] is listed as “(R,R)>>(R,S)=(S,R)>(S,S)”.
In the case of `COc1ccc(C[C@H](C)NC[C@H](O)c2ccc(O)c(NC=O)c2)cc1` [(R,S), reference compound], the order of potency [5] is listed as “(R,R)>>(R,S)=(S,R)>(S,S)”.
For `COc1ccc(C[C@@H](C)NC[C@@H](O)c2ccc(O)c(NC=O)c2)cc1` [(S,R), reference compound], the order of potency [5] is given as “(R,R)>>(R,S)=(S,R)>(S,S)”.
In the case of `COc1ccc(C[C@H](C)NC[C@@H](O)c2ccc(O)c(NC=O)c2)cc1` [(S,S)], the order of potency [5] is listed as “(R,R)>>(R,S)=(S,R)>(S,S)”.
For `COc1ccc(C[C@@H](C)NC[C@H](O)c2ccc(O)c(NC=O)c2)cc1` [D-tartrate], the water absorbed [3, 9] was 0.4-0.5% and the “moisture sorption compared with other salts or forms (in words)” value [3] was “somewhat better than the hydrochloride”.
With `COc1ccc(C[C@@H](C)NC[C@H](O)c2ccc(O)c(NC=O)c2)cc1` [P1] the “decomposition (total impurities study)” value [6] was “nearly completely decomposed”, the “appearance of sample after TGA” value ([7]; 75° C.) was “white” and the “appearance of sample after TGA” value ([7]; 100° C.) was “white”. The “appearance of sample after TGA” value ([7]; 125° C.) was “white”, the “appearance of sample after TGA” value ([7]; 150° C.) was “off-white” and the “appearance of sample after TGA” value ([7]; 175° C.) was “brown”. The “% LOD by TGA” value ([8]; 75° C.) was 0.092%, the “% LOD by TGA” value ([8]; 100° C.) was 0.065% and the “% LOD by TGA” value ([8]; 125° C.) was 0.230%. The “% LOD by TGA” value ([8]; 150° C.) was 0.390%, the LOD in words ([8]; 175° C.) was “significant LODs, the result of decomposition” and the “% LOD by TGA” value ([8]; 175° C.) was 10.805%. For the same compound, the water absorbed ([3]; 85% RH for 11 days) was “less than 0.1%” and the “moisture sorption compared with other salts or forms (in words)” value [3] was “equivalent in moisture sorption”.
In the case of `COc1ccc(C[C@@H](C)NC[C@H](O)c2ccc(O)c(NC=O)c2)cc1` [P2], the “total impurities compared with P1” value ([6]; 100° C. and higher) is reported as “higher levels of total impurities”, the “decomposition (total impurities study)” value [6] is reported as “nearly completely decomposed” and the “appearance of sample after TGA” value ([7]; 75° C.) is reported as “white”. For the same compound, the “appearance of sample after TGA” value ([7]; 100° C.) was “white”, the “appearance of sample after TGA” value ([7]; 125° C.) was “off-white” and the “appearance of sample after TGA” value ([7]; 150° C.) was “tan”. The “appearance of sample after TGA” value ([7]; 175° C.) was “brown”, the “% LOD by TGA” value ([8]; 75° C.) was 0.020% and the “% LOD by TGA” value ([8]; 100° C.) was 0.045%. For the same compound, the “% LOD by TGA” value ([8]; 125° C.) was 0.305%, the “% LOD by TGA” value ([8]; 150° C.) was 1.230% and the LOD in words ([8]; 175° C.) was “significant LODs, the result of decomposition”. For the same compound, the “% LOD by TGA” value ([8]; 175° C.) was 12.990%, the water absorbed ([3]; 85% RH for 11 days) was “less than 0.1%” and the “moisture sorption compared with other salts or forms (in words)” value [3] was “equivalent in moisture sorption”.
In the case of `COc1ccc(C[C@@H](C)NC[C@H](O)c2ccc(O)c(NC=O)c2)cc1` [R,R-formoterol L-tartrate], the hygroscopicity [3] is reported as “non-hygroscopic”, the “water content (moisture sorption)” value ([3]; 11% relative humidity, day 1) is reported as 0.0956 % w/w and the “water content (moisture sorption)” value ([3]; 11% relative humidity, day 3) is reported as 0.1062 % w/w. The “water content (moisture sorption)” value ([3]; 11% relative humidity, day 8) was 0.0842 % w/w, the “water content (moisture sorption)” value ([3]; 11% relative humidity, day 14) was 0.1377 % w/w and the “water content (moisture sorption)” value ([3]; 11% relative humidity, day 28) was 0.0871 % w/w. The “water content (moisture sorption)” value ([3]; 43% relative humidity, day 1) was 0.1091 % w/w, the “water content (moisture sorption)” value ([3]; 43% relative humidity, day 3) was 0.1406 % w/w and the “water content (moisture sorption)” value ([3]; 43% relative humidity, day 8) was 0.0922 % w/w. For the same compound, the “water content (moisture sorption)” value ([3]; 43% relative humidity, day 14) was 0.104 % w/w, the “water content (moisture sorption)” value ([3]; 43% relative humidity, day 28) was 0.0705 % w/w and the “water content (moisture sorption)” value ([3]; 75% relative humidity, day 1) was 0.0895 % w/w. The “water content (moisture sorption)” value ([3]; 75% relative humidity, day 3) was 0.1367 % w/w, the “water content (moisture sorption)” value ([3]; 75% relative humidity, day 8) was 0.0732 % w/w and the “water content (moisture sorption)” value ([3]; 75% relative humidity, day 14) was 0.1146 % w/w. The “water content (moisture sorption)” value ([3]; 75% relative humidity, day 28) was 0.0691 % w/w, the water absorbed ([3]; 89% RH) was 0.10 to 0.13% and the “water content (moisture sorption)” value ([3]; 89% relative humidity, day 1) was 0.1144 % w/w. For the same compound, the “water content (moisture sorption)” value ([3]; 89% relative humidity, day 3) was 0.1379 % w/w, the “water content (moisture sorption)” value ([3]; 89% relative humidity, day 8) was 0.1104 % w/w and the “water content (moisture sorption)” value ([3]; 89% relative humidity, day 14) was 0.1097 % w/w. The “water content (moisture sorption)” value ([3]; 89% relative humidity, day 28) was 0.1122 % w/w, the “water content (moisture sorption)” value ([3]; 93% relative humidity, day 1) was 0.1346 % w/w and the “water content (moisture sorption)” value ([3]; 93% relative humidity, day 3) was 0.2077 % w/w. For the same compound, the “water content (moisture sorption)” value ([3]; 93% relative humidity, day 8) was 0.1076 % w/w, the “water content (moisture sorption)” value ([3]; 93% relative humidity, day 14) was 0.2972 % w/w and the “water content (moisture sorption)” value ([3]; 93% relative humidity, day 28) was 0.1765 % w/w. For the same compound, the “moisture sorption compared with other salts or forms (in words)” value ([3]; listed as L-tartrate of R,R-formoterol) was “superior to all of the salts tested”.
For `COc1ccc(C[C@@H](C)NC[C@H](O)c2ccc(O)c(NC=O)c2)cc1` [fumarate], the water absorbed [3, 9] was 6% and the “moisture sorption compared with other salts or forms (in words)” value [3] was “somewhat better at 43% RE”.
